Legend:
[1] = tested on: HIV transcripts (TAR, LLTR, Pol, PolyA, TatRev); test: Latency reversal assay: cell-associated HIV transcripts (RT-ddPCR) 24 hours after anti-CD3/CD28 activation of PBMCs from ART-suppressed PWH; assay type: cell-based; details: for Effect on HIV transcripts in the initial drug screen (in words): initial screening, 2 participants, 24 hours after activation
Description: We selected 26 small molecules targeting pathways implicated in HIV transcription or the blocks to HIV transcription underlying latency (Supplemental Table 1). […] Initial screening of all drugs was performed in freshly isolated PBMCs from 2 ART-suppressed individuals (Figure 1 and Supplemental Figure 2). PBMCs were cultured in the presence of individual drugs in DMSO or DMSO alone as a control, subsequently activated (anti-CD3/CD28), and harvested after 24 hours. […] The progression through different blocks to HIV transcription was quantified by measuring the levels of initiated (TAR), 5′ elongated (LLTR), midtranscribed/unspliced (Pol), completed (PolyA), and multiply spliced (TatRev) HIV transcripts. The levels of those HIV transcripts were normalized to 1 μg of total cellular RNA (to normalize for the effect of the drug on global cellular transcription) and expressed as a percentage of the activated DMSO control.
Figure 1 Screening of candidate LPAs by measuring the change in multiply spliced HIV transcripts after activation. Each drug was tested in PBMCs from 2 ART-suppressed study participants (denoted in the legend by varying symbol shapes). PBMCs were aliquoted into wells at 6 × 10^6 cells/well. After activation, the cells were cultured with antiretrovirals in the presence of individual drugs in DMSO or DMSO alone as control. All conditions were tested in the presence of CD3/28 T cell–activating beads, except for the unactivated DMSO condition. (A) After 24 hours, the viability was measured by trypan blue staining and then normalized to the levels of the activated DMSO (% of activated DMSO). Bars indicate medians. (B) Total cellular RNA was extracted, and the levels of multiply spliced HIV transcripts (TatRev) were measured by RT-ddPCR, normalized to 1 μg of total cellular RNA, and expressed as a percentage of the activated DMSO control (% of activated DMSO). RT-dd, reverse transcription digital droplet; vRNA, viral RNA; HAT, histone acetyltransferase.
The ability of our candidate LPAs to inhibit HIV transcriptional progression after activation was examined in PBMCs from a minimum of 7 PWH per drug tested (Figure 3). PBMCs were cultured in the presence of individual drugs in DMSO or in DMSO alone as a control, subsequently activated (anti-CD3/CD28), and harvested after 24 hours.
Each drug was tested in PBMCs from 7 ART-suppressed study participants. The PBMCs were aliquoted into wells at 6 × 10^6 cells/well. After activation, the cells were cultured with antiretrovirals in the presence of individual drugs in DMSO or DMSO alone as control. All conditions were tested in the presence of CD3/28 T cell–activating beads, except for the unactivated DMSO condition. After 24 hours, total RNA was extracted, and the progression through different stages of HIV transcription was quantified by measuring the levels of initiated (TAR), 5′ elongated (LLTR), midtranscribed/unspliced (Pol), completed (PolyA), and multiply spliced (TatRev) HIV transcripts. (A) The levels of all HIV transcripts were normalized to 1 μg of total cellular RNA and expressed as a percentage of the activated DMSO control (% of activated DMSO). Medians are shown as well as the individual values per study participant in different colors. (B–D) The effect of each drug on HIV transcriptional progression after activation was analyzed by the ratio of one HIV transcript to another. Ratios are independent of HIV infection frequency or normalization to cell numbers. Shown are the proportion of (B) all HIV transcripts that were elongated (LLTR/TAR), (C) elongated HIV transcripts that were completed spliced (PolyA/LLTR), and (D) completed transcripts that were multiply spliced (TatRev/PolyA).

[2] = tested on: PBMCs; test: Total number of live cells (proliferation) by trypan blue staining at day 6; assay type: cell-based, human; details: day 6; Figure 6A
Description: Some of our candidate LPAs can block the effects of T cell activation, which could affect T cell proliferation. Therefore, we evaluated the extent to which variations in the level of infected cells may contribute to reductions in different HIV RNA transcripts. We measured the total number of viable cells (as a measure of proliferation) and the conserved U3-U5 LTR HIV DNA region (as a measure of total infection frequency) at day 6.
(A) After 6 days, the total number of live cells was measured by trypan blue staining and then normalized to the levels of the activated DMSO (% of activated DMSO). All conditions were tested in the presence of CD3^+/CD28^+ T cell–activating beads, except for the unactivated DMSO condition. Bars indicate medians, and different colors indicate individual study participants. Comparisons were performed using Wilcoxon’s signed-rank test. (B) Total cellular DNA was extracted, and the levels of U3-U5 HIV DNA were measured to quantify infection frequency at 6 days. HIV DNA levels were normalized to copies per 10^6 cells using the input of cellular DNA (assuming 1 μg of total DNA corresponds to 160,000 cells) and then normalized to the activated DMSO control (% of activated DMSO). Bars indicate medians, and different colors indicate individual study participants.

Row | Compound | Effect on HIV transcripts in the initial drug screen (in words) [1] | Effect on HIV transcripts in the initial drug screen (in words) ([1]; listed as Mithramycin A) | Total live cell numbers (proliferation) compared with activated DMSO (in words) [2] | HIV transcriptional completion, ratio PolyA/LLTR ([1]; 24 hours, compared with activated DMSO, Figure 3C)
1 | mithramycin A | no effect after 24 hours | lack of an effect at 24 hours | significantly lower | –
2 | O=c1c(O)c(-c2ccc(O)c(O)c2)oc2cc(O)cc(O)c12 [quercetin] | – | – | did not change proliferation rates | –
3 | COc1ccc(-c2cc(=O)c3c(O)cc(O)c(-c4cc(-c5cc(=O)c6c(O)cc(O)cc6o5)ccc4OC)c3o2)cc1 [isoginkgetin] | – | – | significantly lower | –
4 | CC(=O)N[C@@H]1CCC[C@H](C(=O)Nc2cc(-c3cnn4c3CC(C)(C)C4)c(Cl)cn2)C1 [AZD4573] | – | – | – | reduced

— paper PMC11466185, “Mechanisms and efficacy of small molecule latency-promoting agents to inhibit HIV reactivation ex vivo” (JCI Insight, 2024)
